Source: patent US20110190280A1, “Thiazole And Oxazole Kinase Inhibitors” (priority 2007, published 2011)
Read-outs that look alike come from different tables or passages of the source.

Key:
[1] = target: B-Raf (Homo sapiens, UniProt P15056); test: B-Raf Accelerated MEK ATPase assay (BRAMA); format: biochemical
In short: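 B-Raf activity read as intrinsic MEK ATPase: catalytic activated RAF with non-phosphorylated MEK drives ADP formation, coupled through pyruvate kinase and lactate dehydrogenase to NADH oxidation, independent of ERK phosphorylation.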

[2] = system: A375P tumor cells; test: Cell growth inhibition assay (CellTiter-Glo), A375P; conditions: Homo sapiens, 72 h, read-out: Activity in A375P Tumor Cells;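 note: total ATP luminescence used as proxy for cell number, serial threefold compound dilutions at 0.2% DMSO, growth inhibition expressed versus DMSO vehicle-treated wells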
[3] = system: HT-29 tumor cells; test: Cell growth inhibition assay (CellTiter-Glo), HT-29; conditions: Homo sapiens, HT-29, 72 h, read-out: Activity in HT-29 Tumor Cells;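 note: ATP content read by luminescence as proxy for cell number, growth inhibition versus DMSO vehicle wells, 0.2% DMSO final, nine serial threefold compound dilutions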
Method: (§1) Cell Growth Inhibition Assays Human colon tumor cells (Colo205) were cultured in RPMI (Mediatech 50-020-PB) containing 10% FBS and 1% penicillin-streptomycin. […] Human melanoma cancer cells (A375-F11S) were cultured in RPMI (Mediatech 50-020-PB) containing 10% FBS, 1% sodium pyruvate, and 1% penicillin-streptomycin. Human colon cancer cells (HT-29) were cultured in high glucose DMEM (Mediatech 50-013-PB) containing 10% FBS and 1% penicillin-streptomycin. Human melanoma cancer cells (SK-MEL-3) were cultured in McCoy's 5A (50-025-PB) containing 15% FBS, and 1% penicillin-streptomycin. All cell lines were maintained at 37° C. in a humidified 5% CO2, 95% air incubator.
(§2) The next day, compounds were diluted as follows: For 96-well assays, 13.5 μl of compound in DMSO were diluted using nine (9) serial 1:3 dilutions of 4.5 μl in 9 μl of DMSO. Medium (270 μl/well of RPMI with 10% FBS and 1% penicillin-streptomycin) was added to the plates. Aliquots (7 μl) were added to cells in the final assay giving a final DMSO concentration of 0.2%. For 384-well assays, 15 μl of compound in DMSO were diluted using nine (9) serial 1:3 dilutions of 5 μl in 10 μl of DMSO, followed by a further dilution of 5 μl of compound with 95 μl of medium, of which 2 μl are added to cells in the final assay giving a final DMSO concentration of 0.2%. Cells were incubated at 37° C., 5% CO2 for 3 days.
(§3) Total ATP was measured (as a surrogate estimate of cell number) using CellTiter-Glo® (Promega G7571) reagent. Briefly, plates were removed from the incubator and allowed to equilibrate to room temperature for 30 minutes. CellTiter-Glo® (25 μl or 55 μl for 384-well or 96-well assays, respectively) reagent was added to each well and plates were shaken on an orbital plate shaker for 2 minutes. Plates were incubated without shaking for a further 30 minutes and read on an LJL Analyst GT reader in luminometer mode with an integration time of 0.5 seconds per well. Percent inhibition of cell growth was calculated relative to DMSO vehicle-treated control wells.

[4] = system: Colo205 tumor cells; test: Cell growth inhibition assay (CellTiter-Glo), Colo205; conditions: Homo sapiens, COLO 205, 72 h, read-out: Activity in Colo205 Tumor Cells;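 note: growth measured via total ATP luminescence (CellTiter-Glo) as a proxy for cell number, inhibition expressed against DMSO-treated control wells, 3-day exposure at 0.2% final DMSO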
Method: as §1, §2, §3

[5] = system: SK-MEL-3 tumor cells; test: Cell growth inhibition assay (CellTiter-Glo), SK-MEL-3; conditions: Homo sapiens, SK-MEL3, 72 h, read-out: Activity in SK-MEL-3 Tumor Cells;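 note: human melanoma cells grown with compound for 3 days in 0.2% DMSO, total ATP read by luminescence as proxy for cell number, growth inhibition versus DMSO-treated wells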
[6] = system: SK-MEL-28 tumor cells; test: Cell growth inhibition assay (CellTiter-Glo), SK-MEL-28; conditions: Homo sapiens, SK-MEL-28, 72 h, read-out: Activity in SK-MEL-28 Tumor Cells;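 note: luminescent total ATP as a proxy for cell number, threefold serial dilutions at 0.2% DMSO, percent growth inhibition versus DMSO vehicle control wells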
[7] = BRAMA enzyme assay, class by pIC50, read-out: B-Raf Activity

Structure (SMILES)	IC50 [1, 7]	IC50 [2]	IC50 [3]	IC50 [4]	IC50 [5]	IC50 [6]	IC50 [1]
COc1cccc(-c2nc(C(C)C)sc2-c2ccnc(Nc3ccc(OC4CCN(C(C)C)CC4)c(F)c3)n2)c1 [Example 59, N-(3-Fluoro-4-{[1-(1-methylethyl)-4-piperidinyl]oxy}phenyl)-4-{2-(1-methylethyl)-4-[3-(methyloxy)phenyl]-1,3-thiazol-5-yl}-2-pyrimidinamine]	< 100 nM	500 to 5000 nM	< 500 nM	< 500 nM	< 500 nM	500 to 5000 nM	
COc1cccc(-c2nc(CO)sc2-c2ccnc(Nc3ccc(OCCN4CCCC4)c(F)c3)n2)c1 [Example 60, {5-{2-[(3-Fluoro-4-{[2-(1-pyrrolidinyl)ethyl]oxy}phenyl)amino]-4-pyrimidinyl}-4-[3-(methyloxy)phenyl]-1,3-thiazol-2-yl}methanol]	< 100 nM	500 to 5000 nM	< 500 nM	< 500 nM	< 500 nM	500 to 5000 nM	
COc1cc(C)cc(-c2nc(C(C)C)sc2-c2ccnc(Nc3ccc(N4CCN(CCS(C)(=O)=O)CC4)c(F)c3)n2)c1 [Example 62, N-(3-Fluoro-4-{4-[2-(methylsulfonyl)ethyl]-1-piperazinyl}phenyl)-4-{2-(1-methylethyl)-4-[3-methyl-5-(methyloxy)phenyl]-1,3-thiazol-5-yl}-2-pyrimidinamine]	< 100 nM	< 500 nM	< 500 nM	500 to 5000 nM	< 500 nM	500 to 5000 nM	
CCc1nc(-c2cc(CO)cc(OC)c2)c(-c2ccnc(Nc3ccc(N4CCN(C(C)=O)CC4)nc3)n2)s1 [Example 65, [3-[5-(2-{[6-(4-Acetyl-1-piperazinyl)-3-pyridinyl]amino}-4-pyrimidinyl)-2-ethyl-1,3-thiazol-4-yl]-5-(methyloxy)phenyl]methanol]	< 100 nM	500 to 5000 nM	500 to 5000 nM	500 to 5000 nM	500 to 5000 nM	500 to 5000 nM	
CCc1nc(-c2cc(C)cc(CO)c2)c(-c2ccnc(Nc3ccc(N4CCN(S(C)(=O)=O)CC4)nc3)n2)s1 [Example 66, (3-{2-Ethyl-5-[2-({6-[4-(methylsulfonyl)piperazin-1-yl]pyridin-3-yl}amino)pyrimidin-4-yl]-1,3-thiazol-4-yl}-5-methylphenyl)methanol]	< 100 nM	< 500 nM	< 500 nM	< 500 nM	< 500 nM	500 to 5000 nM	
CCc1nc(-c2cccc(CO)c2)c(-c2ccnc(Nc3ccc(N4CCOCC4)c(F)c3)n2)s1 [Example 67, {3-[2-Ethyl-5-(2-{[3-fluoro-4-(4-morpholinyl)phenyl]amino}-4-pyrimidinyl)-1,3-thiazol-4-yl]phenyl}methanol]	< 100 nM	< 500 nM	< 500 nM	500 to 5000 nM	< 500 nM	500 to 5000 nM	
CCNc1nc(-c2cc(C)cc(OC)c2)c(-c2ccnc(Nc3ccc(N4CC[C@@H](F)C4)nc3)n2)o1 [Example 81]	< 100 nM	500 to 5000 nM	500 to 5000 nM	500 to 5000 nM	500 to 5000 nM	500 to 5000 nM	
COc1cc(C)cc(-c2nc(C(C)C)oc2-c2ccnc(Nc3ccc(N4CCN(C(C)=O)CC4)nc3)n2)c1 [Example 98]	< 100 nM	500 to 5000 nM	500 to 5000 nM	< 500 nM	< 500 nM	500 to 5000 nM	
COc1cc(C)cc(-c2nc(C(C)C)oc2-c2ccnc(Nc3ccc(N4CCOCC4)nc3)n2)c1 [Example 99]	< 100 nM	500 to 5000 nM	500 to 5000 nM	500 to 5000 nM	500 to 5000 nM	500 to 5000 nM	
COc1cc(OC)cc(-c2nc(NC3CC3)sc2-c2ccnc(Nc3ccc(OCCN(C)C)c(Cl)c3)n2)c1 [Example 105]	< 100 nM	< 500 nM	< 500 nM	< 500 nM	< 500 nM	< 500 nM	
CCNc1nc(-c2cc(OC)cc(OC)c2)c(-c2ccnc(Nc3ccc(OCCN(C)C)c(C)c3)n2)s1 [Example 106]	< 100 nM	< 500 nM	< 500 nM	< 500 nM	< 500 nM	500 to 5000 nM	
CCNc1nc(-c2cc(OC)cc(OC)c2)c(-c2ccnc(Nc3ccc(N4CCN5CCCCC5C4)c(F)c3)n2)s1 (stereo not drawn) [Example 115]	< 100 nM	500 to 5000 nM	< 500 nM	< 500 nM	< 500 nM	500 to 5000 nM	
CCNc1nc(-c2cc(C)cc(OC)c2)c(-c2ccnc(Nc3ccc(N4CCN(CCF)CC4)c(F)c3)n2)o1 [Example 128]		500 to 5000 nM	500 to 5000 nM	< 500 nM	500 to 5000 nM	500 to 5000 nM	< 100 nM

More lines, main results first:

IC50 [1, 7]	IC50 [2]	IC50 [3]	IC50 [4]	IC50 [5]	IC50 [6]	Structure (SMILES)	IC50 [1]
< 100 nM	500 to 5000 nM	500 to 5000 nM	500 to 5000 nM	< 500 nM	500 to 5000 nM	CCNc1nc(-c2cc(OC)cc(OC)c2)c(-c2ccnc(Nc3ccc(OC4CCN(CCOC)CC4)c(F)c3)n2)o1 [Example 89]	
< 100 nM	500 to 5000 nM	< 500 nM	< 500 nM	< 500 nM	< 500 nM	CCNc1nc(-c2cc(OC)cc(OC)c2)c(-c2ccnc(Nc3cc(F)c(OC4CCN(CCS(C)(=O)=O)CC4)c(F)c3)n2)o1 [Example 90]	
< 100 nM	500 to 5000 nM	500 to 5000 nM	500 to 5000 nM	500 to 5000 nM	500 to 5000 nM	CCNc1nc(-c2cc(OC)cc(OC)c2)c(-c2ccnc(Nc3ccc(OC4CCN(CCS(C)(=O)=O)CC4)c(Cl)c3)n2)o1 [Example 92]	
< 100 nM	500 to 5000 nM	< 500 nM	< 500 nM	< 500 nM	500 to 5000 nM	CCNc1nc(-c2cc(OC)cc(OC)c2)c(-c2ccnc(Nc3cc(F)c(N4CCN(CCF)CC4)c(F)c3)n2)o1 [Example 94]	
< 100 nM	500 to 5000 nM	500 to 5000 nM	500 to 5000 nM	500 to 5000 nM	500 to 5000 nM	CCNc1nc(-c2cc(OC)cc(OC)c2)c(-c2ccnc(Nc3ccc(OC4CCN(CCS(C)(=O)=O)CC4)c(OC)c3)n2)o1 [Example 95]	
< 100 nM	500 to 5000 nM	500 to 5000 nM	500 to 5000 nM	500 to 5000 nM	500 to 5000 nM	CCNc1nc(-c2cc(OC)cc(OC)c2)c(-c2ccnc(Nc3ccc(OC4CCN(CCF)CC4)c(OC)c3)n2)o1 [Example 96]	
< 100 nM	500 to 5000 nM	< 500 nM	< 500 nM	< 500 nM	500 to 5000 nM	COc1cc(C)cc(-c2nc(C(C)C)oc2-c2ccnc(Nc3ccc(N4CCN(CCS(C)(=O)=O)CC4)c(F)c3)n2)c1 [Example 102]	
< 100 nM	500 to 5000 nM	< 500 nM	< 500 nM	500 to 5000 nM	500 to 5000 nM	CCNc1nc(-c2cc(Cl)cc(OC)c2)c(-c2ccnc(Nc3ccc(N4CCN(CCF)CC4)c(F)c3)n2)o1 [Example 104]	
< 100 nM	500 to 5000 nM	500 to 5000 nM	< 500 nM	500 to 5000 nM	500 to 5000 nM	CCNc1nc(-c2cc(OC)cc(OC)c2)c(-c2ccnc(Nc3ccc(N4CCN(CCO)CC4)nc3)n2)o1 [Example 108]	
< 100 nM	500 to 5000 nM	500 to 5000 nM	< 500 nM	500 to 5000 nM	500 to 5000 nM	CCNc1nc(-c2cc(OC)cc(OC)c2)c(-c2ccnc(Nc3ccc(N4CCN(CCF)CC4)nc3)n2)o1 [Example 112]	
< 100 nM	500 to 5000 nM	500 to 5000 nM	< 500 nM	< 500 nM	500 to 5000 nM	CCNc1nc(-c2cc(OC)cc(OC)c2)c(-c2ccnc(Nc3ccc(N4CCN(CCS(C)(=O)=O)CC4)c(F)c3)n2)o1 [Example 116]	
< 100 nM	500 to 5000 nM	500 to 5000 nM	< 500 nM	500 to 5000 nM	500 to 5000 nM	CCNc1nc(-c2cc(OC)cc(OC)c2)c(-c2ccnc(Nc3ccc(N4CCN(CCF)CC4)c(F)c3)n2)o1 [Example 117]	
< 100 nM	500 to 5000 nM	500 to 5000 nM	500 to 5000 nM	500 to 5000 nM	500 to 5000 nM	CCNc1nc(-c2cc(OC)cc(OC)c2)c(-c2ccnc(Nc3ccc(N4CCN(CCOC)CC4)c(C(=O)O)c3)n2)o1 [Example 119]	
< 100 nM	500 to 5000 nM	500 to 5000 nM	< 500 nM	500 to 5000 nM	500 to 5000 nM	CCNc1nc(-c2cc(OC)cc(OC)c2)c(-c2ccnc(Nc3ccc(N4CCOCC4)nc3)n2)o1 [Example 120]	
< 100 nM	500 to 5000 nM	500 to 5000 nM	500 to 5000 nM	500 to 5000 nM	500 to 5000 nM	CCNc1nc(-c2cc(C)cc(OC)c2)c(-c2ccnc(Nc3ccc(OC4CCN(CCS(C)(=O)=O)CC4)c(C)c3)n2)o1 [Example 125]	
< 100 nM	500 to 5000 nM	< 500 nM	< 500 nM	< 500 nM	< 500 nM	CCNc1nc(-c2cc(C)cc(OC)c2)c(-c2ccnc(Nc3ccc(N4CCN(CCS(C)(=O)=O)CC4)c(F)c3)n2)o1 [Example 127]	
